Patent US20180140679A1, “MODULATION OF AXL RECEPTOR ACTIVITY IN COMBINATION WITH CYTOREDUCTIVE THERAPY” (THE BOARD OF TRUSTEES OF THE LELAND STANFORD JUNIOR …, priority 2016, published 2018)
Each block holds one molecule with its values, some of them ahead of it.

Experiments:
[1] = test system: Axl and FLT3 phosphorylation in AML cells; test: Western blot of Axl and FLT3 phosphorylation in AML cells; format: cell-based, human
Source text: (§1) Cell lysates subjected to sodium dodecyl sulfate polyacrylamide gel electrophoresis followed by transfer to nitrocellulose membrane. The membranes were then probed with primary antibodies against total Axl (AF154, R&D Systems, INC., Minneapolis, Minn.), phospho-Axl (T702; #5724, CST, Danvers, Mass.), total Akt (#4691 CST, Danvers, Mass.), phosphor-Akt (#4060, CST, Danvers, Mass.), anti-MERTK (#ab52968, Abcam, Cambridge, Mass.), phospho-MERTK (#ab14921 Abcam, Cambridge, Mass.), anti-Tyro3 (#5585, CST, Danvers, Mass.), phospho-Tyro3 (#orb186274, Biorbyt LLC, Berkely, Calif.), Bcl-2 Family Antibody Sampler Kit (#9934, CST, Danvers, Mass.), anti-Chk2 (#sc-5278, Santa Cruz Biotech, INC., Santa Cruz, Calif.), anti-XRCC1 (#2735, CST, Danvers, Mass.), anti-γH2AX (Merck Millipore #05636, Darmstadt, Germany), anti-phospho-ATM (#ab81292, Abcam, Cambridge, Mass.), anti-ATM (#ab78, Abcam, Cambridge, Mass.), anti phospho-ATR (#2853, CST, Danvers, Mass.), anti-ATR (#2790, CST, Danvers, Mass.), anti-Phospho Chk1 (#12302, CST, Danvers, Mass.), anti-Phospho Chk2 (#2197, CST, Danvers, Mass.) and anti-RPA32 (#2208, CST, Danvers, Mass.) at 4° C. overnight. The blots were then washed and probed with HRP conjugated anti-goat (#sc-2020, Santa Cruz Biotech, INC., Santa Cruz, Calif.), or HRP conjugated anti-rabbit (#A16110, Thermo Fisher Scientific, Walthan, Mass.) as appropriate. The blots were developed with Bio-Rad Western C developing reagent (#170-5060 Bio-Rad, Hercules, Calif.) and visualized with Chemidoc digital imager (#1708280, Bio-Rad, Hercules, Calif.).

4T1 luciferase cells = format: in vivo
Source text: In this model, cells orthotopically implanted in the mammary fat pad generate primary masses that metastasize to the lungs.
Comparison of MYD1-72 Fc with clinical Axl. TKIs There are currently no FDA approved drugs targeting Axl, though several small molecule kinase inhibitors are undergoing clinical trials. BerGenBio's BGB324 (previously Rigel's R428) is the most advanced of these compounds, and the first to be developed prospectively as an Axl inhibitor. […] Furthermore, since TKI's and biologics are fundamentally very different, as are their mechanisms of action, a direct comparison would provide valuable insights into the potential of distinct therapeutic intervention strategies. […] Cells were implanted orthotopically in the mammary fat pad, and primary tumors were allowed to establish prior to treatment. […] This dose for the TKIs was chosen as significant activity has been previously reported at equivalent concentrations.
(§2) Treatment was initiated four days post-surgery.

[2] = test system: phosphorylation of Axl, Mer, Tyro3, and downstream Akt signaling in OVCAR8 cells; test: Western blot of TAM receptor and Akt phosphorylation in OVCAR8 cells; format: cell-based, human
Source text: as §1

ovarian cancer cells [3] = test: Immunofluorescence of DNA damage foci in ovarian cancer cells; format: cell-based
Procedure: (§3) 10,000 cells were plated in each well of glass chamber slide and allowed to attach overnight. […] Cells were then washed with PBS and fixed with 4% paraformaldehyde, lysed for 10 minutes and blocked with a 2% BSA and 0.1% PBS-Triton-X solution for 1 hour. After washes in PBS-Triton-X, cells were incubated with mouse anti-[…]H2AX, (#05-636, Merck Millipore, Darmstadt, Germany); rabbit anti-RAD51, (#PC130-100 UL Merck Millipore, Darmstadt, Germany); rabbit anti-53BP1, (# ab36823, Abcam, Cambridge, Mass.) overnight in a humidified chamber at 4 degrees. Cells were washed with PBS and incubated in secondary antibody anti-rabbit FITC (#65-6111 Thermo Fisher Scientific, Walthan, Mass. or anti-mouse FITC, (#62-6511, Thermo Fisher Scientific, Walthan, Mass.) for 1 hour at 37 degrees and counterstained with Prolong Mounting medium with DAPI. Positive foci intensity were calculated using imagine software Metamorph. EdU (5-ethynyl-2′-deoxyuridine) labeling and co-staining were carried out according to the manufacturer's instructions (#C10637, Thermo Fisher Scientific, Walthan, Mass.). γH2AX staining was performed as described above.
(§4) Cells were visualized using a Leica DM6000 B microscope with Leica Application Suite X software (Wetzlar, Germany). EdU was used at a concentration of 10 μM. EdU labeling was carried out for 1 hour in all cases, for conditions including drug treatments EdU was added during the last hour of treatment. Experiments were carried out in triplicate. Quantification of staining: Positive γH2AX staining refers to cells with over eight foci and pan-nuclear staining. For hydroxyurea (Hu) treated groups, γH2AX positive cells refers to cells where a pan-nuclear staining pattern (typically associated with replication stress) was observed.

wild-type cell lines = test: Reverse phase protein array (RPPA); format: cell-based; conditions: continuously for seven days in low serum (1% FBS)
Procedure: (§5) To further understand this relationship, we performed a reverse phase protein array (RPPA) on shAxl cell lines and wild-type cell lines treated with MYD1-72 Fc. […] In addition, we performed western blot analysis to examine expression levels of classical DNA damage response components, including total and phosphorylated ATM, ATR, CHK1, CHK2 and RPA32 (FIG. 5B) at four time points post MYD1-72 treatment.
The RPPA was performed by MD Anderson as described.

[4] = test system: ATM, ATR, CHK1, CHK2 and RPA32 in ovarian cancer cells; test: Western blot of DNA damage response components in ovarian cancer cells; format: cell-based; conditions: low serum (0.1% FBS)
Source text: as §5, §1

ovarian cancer cells [5] = test: EdU labeling and γH2AX co-staining; format: cell-based
Procedure: as §3, §4

OVCAR8 = OVCAR8 intraperitoneal ovarian cancer model; format: in vivo, mouse; conditions: MYD1-72 Fc 1 mg/kg daily, doxorubicin 2 mg/kg twice weekly, three weeks
Source text: (§6) At this time, several mice were sacrificed at random to ensure engraftment of diffuse metastatic disease, a hallmark of the human condition. […] After three weeks of treatment, mice were sacrificed and tumor burden was quantified both by counting the number of visible lesions, as well as excising and weighing all diseased tissue.
as §2

skov3.ip = skov3.ip intraperitoneal ovarian cancer model; format: in vivo, mouse xenograft; conditions: MYD1-72 Fc 1 mg/kg daily, doxorubicin 2 mg/kg twice weekly, three weeks
Source text: as §6, §2

[6] = test system: LM-P orthotopic pancreatic cancer; test: LM-P orthotopic pancreatic cancer model; conditions: immunohistochemistry
Procedure: LMP cells derived from the KRAS/p53 metastatic mouse model were implanted subcutaneously into the flanks of mice and allowed to grow until they reached ˜500 mm^3 in size.
To establish orthotopic tumors, mice harboring subcutaneous tumors were sacrificed and tumors were isolated and cut into small fragments. Laparotomies were then performed and a tumor fragment was secured to the tail of the pancreas.
All procedures involving animals and their care and use were approved by the Institutional Animal Care and Usage Committee of Stanford University. For all in vivo studies, six week old, female nude (nu/nu) mice (Jackson Laboratory, Bar Harbor, Me.) were used. In all studies, animals displaying signs of morbidity were removed from the study immediately. […] Treatment was initiated four days post-inoculation for both studies. […] BGB324 (Selleckchem LLC, Houston, Tex.) and Foretinib (MedChem, Monmouth Junction, N.J.). Small molecules were administered twice daily via oral gavage. […] The orthotropic LM-P pancreatic adenocarcinoma model (a gift from Dr. Edgar Engleman at Stanford University, Stanford, Calif.) was established as previously described. Briefly, 1×10^6 cells were injected subcutaneously into the flanks of nude mice and grown for 2-3 weeks until they reached 500 mm^3. […]

human Gas6 = target: T1, human Gas6 (Homo sapiens, UniProt Q14393); test: Kinetic Exclusion Assay (KinExA), Gas6-Axl binding, human Gas6
T1 sequence (Q14393 31-678): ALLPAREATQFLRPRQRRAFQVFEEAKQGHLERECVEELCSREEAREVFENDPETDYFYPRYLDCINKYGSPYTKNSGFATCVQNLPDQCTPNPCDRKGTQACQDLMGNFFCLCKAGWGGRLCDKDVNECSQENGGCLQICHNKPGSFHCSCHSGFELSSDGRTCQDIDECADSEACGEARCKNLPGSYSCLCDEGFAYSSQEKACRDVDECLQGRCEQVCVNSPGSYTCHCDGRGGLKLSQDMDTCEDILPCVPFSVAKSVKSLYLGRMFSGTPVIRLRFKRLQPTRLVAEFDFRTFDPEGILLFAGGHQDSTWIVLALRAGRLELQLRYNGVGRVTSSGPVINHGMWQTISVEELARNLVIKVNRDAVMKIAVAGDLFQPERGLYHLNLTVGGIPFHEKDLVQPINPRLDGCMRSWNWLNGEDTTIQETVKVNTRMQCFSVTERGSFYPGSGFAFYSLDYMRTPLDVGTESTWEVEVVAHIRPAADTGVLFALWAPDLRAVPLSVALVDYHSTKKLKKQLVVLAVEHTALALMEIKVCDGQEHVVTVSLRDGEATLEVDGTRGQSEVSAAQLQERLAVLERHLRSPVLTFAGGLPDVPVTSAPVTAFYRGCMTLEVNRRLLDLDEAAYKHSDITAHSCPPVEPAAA
Procedure: (§7) Equilibrium binding and association rate constants for all Gas6-Axl interactions were measured on a KinExA3200 instrument (Sapidyne Instruments Inc. Boise, Id.) as previously described. For equilibrium binding studies, three independent titrations were completed for each Axl Ig1 or Axl Fc fusion unless otherwise noted. […] After the appropriate incubation time, reactions were flowed over MYD1 Fc coated beads and captured free Gas6 was probed using an anti-6×HIS Dylight 649 antibody (#200-343-382, Rockland Immunochemicals Inc., Pottstown, Pa.). Each sample was measured twice and data from the three independent equilibrium binding experiments were globally analyzed using n-curve analysis in the KinExA Pro 3.6.2 software (Sapidyne Instruments Inc. Boise, Id.) to obtain the Kd value. To analyze the association rate of the interactions, the direct inject method was used. For these experiments, 1 μM Axl was serially diluted 1:2.5, and equal volumes of each Axl sample and 500 nM Gas6 were briefly mixed and flowed over the capture beads. Free Gas6 was detected as described and the data was fit using the KinExA Pro 3.6.2 software to obtain the association rate (kon) of the interaction. The dissociation rate (koff) was calculated as the product of the Kd and the kon.

mouse Gas6 = target: T2, mouse Gas6 (Mus musculus, UniProt Q61592); test: Kinetic Exclusion Assay (KinExA), Gas6-Axl binding, mouse Gas6
T2 sequence (Q61592 28-674): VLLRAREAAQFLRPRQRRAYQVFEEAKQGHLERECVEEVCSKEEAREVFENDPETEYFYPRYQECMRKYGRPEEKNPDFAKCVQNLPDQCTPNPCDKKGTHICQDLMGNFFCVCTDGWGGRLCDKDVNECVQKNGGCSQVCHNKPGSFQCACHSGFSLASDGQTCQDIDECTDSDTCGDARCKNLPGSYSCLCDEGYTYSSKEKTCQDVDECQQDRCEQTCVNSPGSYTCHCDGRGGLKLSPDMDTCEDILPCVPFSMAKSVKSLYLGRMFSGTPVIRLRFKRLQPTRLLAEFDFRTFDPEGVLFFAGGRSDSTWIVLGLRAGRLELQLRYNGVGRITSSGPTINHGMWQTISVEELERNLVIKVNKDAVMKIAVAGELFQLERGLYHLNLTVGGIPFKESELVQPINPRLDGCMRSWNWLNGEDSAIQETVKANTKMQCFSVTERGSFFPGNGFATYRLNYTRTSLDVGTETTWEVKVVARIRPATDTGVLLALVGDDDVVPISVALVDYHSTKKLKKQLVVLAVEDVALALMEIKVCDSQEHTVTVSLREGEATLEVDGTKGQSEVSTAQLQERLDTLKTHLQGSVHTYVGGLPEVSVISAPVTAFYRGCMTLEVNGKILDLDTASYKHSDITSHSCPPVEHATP
Procedure: as §7

Molecule: MYD1-72 Fc: Fc fusion of the second generation high-affinity Axl decoy receptor MYD1-72 (Gly32Ser, Ala72Val, Asp87Gly, Val92Ala, Gly127Arg)
Axl and FLT3 phosphorylation [1]: inhibited Axl and FLT3 phosphorylation
lung metastatic disease (4T1 luciferase cells; 0.5 mg/kg iv twice a week, three weeks): significantly less metastatic disease than those treated with MYD1 Fc
reduction in lung metastases compared to vehicle treated mice (4T1 luciferase cells; MYD1-72 Fc 1 mg/kg daily, TKIs 12.5 mg/kg twice daily, ex vivo bioluminescent imaging): 71%
size of primary tumors (4T1 luciferase cells; MYD1-72 Fc 1 mg/kg daily, TKIs 12.5 mg/kg twice daily, three weeks, vs control): significantly reduced the size of primary tumors
γH2AX positive cells in primary tumor (4T1 luciferase cells; immunohistochemistry): significantly more γH2AX positive cells compared to all other treatment groups
pAxl and pAkt levels [2]: significantly reduced pAxl and pAkt levels
pMer and pTyro3 levels [2]: pMer and pTyro3 remained relatively unchanged
γH2AX foci (ovarian cancer cells [3]; complete media, 0.1 μg or 10 μg): showed no changes across treatments
53BP1 and RAD51 foci (ovarian cancer cells [3]; serum-limited conditions): increased the numbers of both 53BP1 and RAD51 foci
number of γH2AX foci (ovarian cancer cells [3]; serum-limited conditions, vs untreated controls): significant increase in the number of γH2AX foci
XRCC1/Chk2 and BAX/BID expression (wild-type cell lines): highly upregulated
phospho-RPA32 level [4]: Elevated phospho-RPA32 level
phospho-ATM and phospho-ATR ([4]; four time points): significant induction of phospho-ATM and phospho-ATR at early time points
phosphorylation of CHK1 and CHK2 ([4]; four time points): increased phosphorylation of both CHK1 and CHK2
γH2AX positive cells in combination with hydroxyurea (ovarian cancer cells [5]; hydroxyurea in the presence and absence of MYD1-72 Fc): no additive effect was observed
non-S phase cells (EdU negative) positive for γH2AX (ovarian cancer cells [5]; treated group): 7%
γH2AX positive cells that were also in S phase/EdU positive (ovarian cancer cells [5]; treated group): 85%
reduction of tumor burden (OVCAR8): 95%
decrease in tumor burden (by weight) vs controls (skov3.ip): 51%
γH2AX staining (DNA damage) in primary tumor [6]: small effect on DNA damage

Kd (human Gas6; Axl Ig1 variants, read-out: Kd hGas6): 2.7 pM
koff (human Gas6; calculated as the product of the Kd and the kon): 4.0 10^−5 s^−1
kon (human Gas6; direct inject method): 1.6 10^7 M^−1 s^−1
binding to mouse Gas6 (mouse Gas6): no increase in binding to mouse Gas6
B1: MYD1 Ig1: first generation high affinity Axl Ig1 variant containing four mutations that conferred improved binding to Gas6 (protein)
chain: APRGTQAEESPFVSNPGNITGARGLTGTLRCQLQVQGEPPEVHWLRDGQILELADSTQTQVPLGEDEQGDWIVASQLRITSLQLSDTGQYQCLVFLGHQTFVSQPGYVRLEGLP
modifications: left off: small tags and cut ends
